Reference: US9018214B2, “Bicyclic heterocycle compounds and their uses in therapy” (Astex Therapeutics Limited, priority 2011, dated 2015)
Structures can show the parent of a compound that is named as a salt. Where two headings read alike, the source gives them in different places.

Columns and labels:
[1] = target: BIR3 domain of human XIAP (residues 252-350) (Homo sapiens (Human), UniProt P98170); experiment: XIAP in vitro competitive displacement binding assay (fluorescence polarization); details: for IC50: read-out: IC50 or PI Xiap: IC50
[2] = target: BIR3 domain of human cIAP-1 (residues 267-363) (Homo sapiens (Human), UniProt Q13490); experiment: cIAP-1 in vitro competitive displacement binding assay (fluorescence polarization; Probe A AVPIK(5&6FAM)-amide or Probe B AbuRPFK(5&6FAM)-amide)
[3] = Probe B AbuRPFK(5&6FAM)-amide, read-out: IC50 or PI cIAP1: IC50
[4] = read-out: IC50 or PI cIAP1: IC50
[5] = Probe A AVPIK(5&6FAM)-amide, read-out: IC50 or PI cIAP1: IC50
[6] = 1 h, read-out: IC50 or PI Xiap: PI
[7] = 3 h, Probe A, read-out: IC50 or PI cIAP1: PI

With `COC[C@H]1CN[C@H](C)CN1CC(=O)N1CC(C)(c2ccccn2)c2ccc(C#N)cc21` (mixture of isomers) [Example 156, 1-{2-[(2R,5R)-2-(Methoxymethyl)-5-methylpiperazin-1-yl]acetyl}-3-methyl-3-(pyridin-2-yl)-2,3-dihydro-1H-indole-6-carbonitrile hydrochloride [mixture of diastereoisomers]] the IC50 [1] was 1500 nM and the IC50 [2, 3] was 1300 nM.
Work on `C[C@@H]1CN(CC(=O)N2CCc3ccc(N(C)c4ccccc4)cc32)CCN1` [Example 2, 1-[6-(Methyl-phenyl-amino)-2,3-dihydro-indol-1-yl]-2-((R)-3-methyl-piperazin-1-yl)-ethanone Trifluoroacetate salt] yielded an IC50 [1] of 41000 nM and an IC50 [2, 4] of 79000 nM.
`C[C@@H]1CN(CC(=O)N2CCc3ccc(Nc4ccccc4)cc32)CCN1` [Example 3, 2-((R)-3-Methyl-piperazin-1-yl)-1-(6-phenylamino-2,3-dihydro-indol-1-yl)-ethanone Trifluoroacetate salt] gave an inhibition at 99 µM ([2]; 3 h, read-out: IC50 or PI cIAP1: PI) of 48%.
For `C[C@@H]1CN(CC(=O)N2CCc3ccc(Cl)cc32)CCN1` [Example 4, 1-(6-Chloro-2,3-dihydro-indol-1-yl)-2-((R)-3-methyl-piperazin-1-yl)-ethanone], the IC50 [2, 5] was 29000 nM.
For `COc1ccc2c(c1)N(C(=O)CN1CCN[C@H](C)C1)CC2` [Example 5, 1-(6-Methoxy-2,3-dihydro-indol-1-yl)-2-((R)-3-methyl-piperazin-1-yl)-ethanone], the inhibition at 160 µM [1, 6] was 49% and the IC50 [2, 5] was 78000 nM.
Work on `Cc1ccc2c(c1)N(C(=O)CN1CCN[C@H](C)C1)CC2` [Example 6, 1-(6-Methyl-2,3-dihydro-indol-1-yl)-2-((R)-3-methyl-piperazin-1-yl)-ethanone] yielded an IC50 [2, 5] of 95000 nM.
`C[C@@H]1CN(CC(=O)N2CCc3ccc(N)cc32)CCN1` [Example 7, 1-(6-Amino-2,3-dihydro-indol-1-yl)-2-((R)-3-methyl-piperazin-1-yl)-ethanone] gave an inhibition at 1600 µM ([1]; 1 h, @ 1600 μM, read-out: IC50 or PI Xiap: PI) of 43% and an inhibition at 5000 µM ([2]; 3 h, Probe A, @ 5000 μM, read-out: IC50 or PI cIAP1: PI) of -30%.
In the case of `C[C@@H]1CN(CC(=O)N2CCc3ccc(NS(C)(=O)=O)cc32)CCN1` [Example 8, N-{1-[2-((R)-3-Methyl-piperazin-1-yl)-acetyl]-2,3-dihydro-1H-indol-6-yl}-methane-sulfonamide], the inhibition at 160 µM [1, 6] is reported as 59% and the inhibition at 160 µM [2, 7] is reported as 46%.
Molecule `C[C@@H]1CN(CC(=O)N2CCc3cc(F)ccc32)CCN1` [Example 9, 1-(5-Fluoro-2,3-dihydro-indol-1-yl)-2-((R)-3-methyl-piperazin-1-yl)-ethanone] has an IC50 [1] of 130000 nM and an IC50 [2, 5] of 170000 nM.
Molecule `C[C@@H]1CN(CC(=O)N2CCc3ccc(F)cc32)CCN1` [Example 10, 1-(6-Fluoro-2,3-dihydro-indol-1-yl)-2-((R)-3-methyl-piperazin-1-yl)-ethanone] has an inhibition at 160 µM [2, 7] of 51%.
Molecule `C[C@@H]1CN(CC(=O)N2CCc3cc(Br)ccc32)CCN1` [Example 11, 1-(5-Bromo-2,3-dihydro-indol-1-yl)-2-((R)-3-methyl-piperazin-1-yl)-ethanone] has an inhibition at 100 µM ([1]; 1 h, @ 100 μM, read-out: IC50 or PI Xiap: PI) of 59% and an inhibition at 100 µM [2, 7] of 46%.
In the case of `CC(C)[C@H]1CN[C@H](C)CN1CC(=O)N1CCc2ccc(Br)cc21` [Example 12, 1-(6-Bromo-2,3-dihydro-indol-1-yl)-2-((2S,5R)-2-isopropyl-5-methyl-piperazin-1-yl)-ethanone], the IC50 [2] is reported as < 10000 nM.
For `CC(C)c1ccc2c(c1)N(C(=O)CN1CCN[C@H](C)C1)CC2` [Example 13, 1-(6-Isopropyl-2,3-dihydro-indol-1-yl)-2-((R)-3-methyl-piperazin-1-yl)-ethanone], the IC50 [2, 5] was 63000 nM.
With `C[C@@H]1CN(CC(=O)N2CCc3ccc(C(F)(F)F)cc32)CCN1` [Example 22, 2-((R)-3-Methyl-piperazin-1-yl)-1-(6-trifluoromethyl-2,3-dihydro-indol-1-yl)-ethanone] the IC50 [2, 5] was 36000 nM.
For `C[C@@H]1CN(CC(=O)N2CCc3ccc(S(C)(=O)=O)cc32)CCN1` [Example 30, 1-(6-Methane-sulfonyl-2,3-dihydro-indol-1-yl)-2-((R)-3-methyl-piperazin-1-yl)-ethanone hydrochloride salt], the inhibition at 99 µM ([2]; 3 h, Probe A, @ 99 μM, read-out: IC50 or PI cIAP1: PI) was 60%.
Molecule `COC[C@H]1CN[C@H](C)CN1CC(=O)N1CC(C)(C)c2cnc(CC(C)C)cc21` [Example 72, 1-(6-Isobutyl-3,3-dimethyl-2,3-dihydro-pyrrolo[3,2-c]pyridin-1-yl)-2-((2R,5R)-2-methoxymethyl-5-methyl-piperazin-1-yl)-ethanone] has an IC50 [2, 3] of 310 nM.
With `COC[C@H]1CN[C@H](C)CN1CC(=O)N1CC(C)(C)c2cnc(Cc3ccc(OC)cc3)cc21` [Example 98, 2-[(2R,5R)-2-(Methoxymethyl)-5-methylpiperazin-1-yl]-1-{6-[(4-methoxyphenyl)methyl]-3,3-dimethyl-1H,2H,3H-pyrrolo[3,2-c]pyridin-1-yl}ethan-1-one, hydrochloride salt] the IC50 [2, 3] was 23 nM.
`COC[C@H]1CN[C@H](C)CN1CC(=O)N1CC(C)(Cc2ccccc2)c2ccc(Cl)cc21` (stereo partly drawn) [Example 107, 1-(3-Benzyl-6-chloro-3-methyl-2,3-dihydro-1H-indol-1-yl)-2-[(2R,5R)-2-(methoxymethyl)-5-methylpiperazin-1-yl]ethan-1-one, hydrochloride salt] gave an IC50 [2, 3] of 550 nM.
With `CC1(C)CN(C(=O)CN2CCNC(C(F)(F)F)C2)c2cc(Cc3ccccc3)ncc21` (stereo not drawn) [Example 113, 1-{6-Benzyl-3,3-dimethyl-1H,2H,3H-pyrrolo[3,2-c]pyridin-1-yl}-2-[3-(trifluoromethyl)piperazin-1-yl]ethan-1-one] the inhibition at 100 µM ([2]; 3 h, Probe B, read-out: IC50 or PI cIAP1: PI) was 6%.
`CC1(C)CN(C(=O)CN2CCNC(CF)C2)c2cc(Cc3ccccc3)ncc21` (stereo not drawn) [Example 114, 1-{6-Benzyl-3,3-dimethyl-1H,2H,3H-pyrrolo[3,2-c]pyridin-1-yl}-2-[3-(fluoromethyl)piperazin-1-yl]ethan-1-one] gave an IC50 [2, 3] of 1500 nM.
Molecule `CC1(C)CN(C(=O)CN2CCN[C@H](CF)C2)c2cc(Cc3ccccc3)ncc21` [Example 115, 1-{6-Benzyl-3,3-dimethyl-1H,2H,3H-pyrrolo[3,2-c]pyridin-1-yl}-2-[(3S)-3-(fluoromethyl)piperazin-1-yl]ethan-1-one] has an IC50 [2, 3] of 670 nM.
In the case of `CC1(C)CN(C(=O)CN2CCN[C@@H](CF)C2)c2cc(Cc3ccccc3)ncc21` [Example 116, 1-{6-Benzyl-3,3-dimethyl-1H,2H,3H-pyrrolo[3,2-c]pyridin-1-yl}-2-[(3R)-3-(fluoromethyl)piperazin-1-yl]ethan-1-one], the IC50 [2, 3] is reported as 1900 nM.
`COC[C@H]1CN[C@H](C)CN1CC(=O)N1C[C@@](C)(c2ccccc2)c2ccc(C#N)cc21` [Example 139, (3S)-1-{2-[(2R,5R)-2-(Methoxymethyl)-5-methylpiperazin-1-yl]acetyl}-3-methyl-3-phenyl-2,3-dihydro-1H-indole-6-carbonitrile] showed an IC50 [1] of 230 nM.
For `C[C@@H]1CN(CC(=O)N2CC(C)(C)c3ncc(C(C)(F)F)cc32)[C@@H](CN2CCCC2=O)CN1` [Example 188, 1-{[(2R,5R)-1-{2-[6-(1,1-Difluoroethyl)-3,3-dimethyl-1H,2H,3H-pyrrolo[3,2-b]pyridin-1-yl]-2-oxoethyl}-5-methylpiperazin-2-yl]methyl}pyrrolidin-2-one dihydrochloride], the IC50 [2, 4] was 40 nM.
In the case of `C[C@@H]1CN(CC(=O)N2CC(C)(C)c3ncc(Cc4ccc(F)cc4)cc32)CCN1` [Example 265, 1-[6-(4-Fluoro-benzyl)-3,3-dimethyl-2,3-dihydro-pyrrolo[3,2-b]pyridin-1-yl]-2-((R)-3-methyl-piperazin-1-yl)-ethanone], the IC50 [2] is reported as < 10000 nM and the IC50 [2, 4] is reported as 41 nM.
